This test concerns the target RSL lectin (fucose binding lectin RSL) (Ralstonia pseudosolanacearum, UniProt Q8XXK6). Nature of the test: biochemical.

One may read the Kd as the constant that tells how readily two partners part at equilibrium. Higher therefore signals a looser complex. Consider `CO[C@@H]1O[C@@H](C)[C@@H](O)[C@@H](O)[C@@H]1O` [α-L-Me-fucoside], for which binding was put at a Kd of 0.6 µM.

For the origin of these results see publication PMC3466270 (PLoS ONE, 2012).
